From US10738041B2, “Ferroportin inhibitors” (Vifor (International) AG, priority 2015, dated 2020)

Experiments:
ferroportin (Fpn) = target: T1, ferroportin (Fpn) (Mus musculus, UniProt Q9JHI9); experiment: Hepcidin Internalization Assay (J774); type: cell-based; conditions: average of multiple measurements; inhibition of TMR-hepcidin (25 nM) internalization into J774 cells; read-out: J774 IC50
T1 construct: host or cells: J774 mouse macrophage cell line, Fe(III)-NTA induced
T1 sequence (Q9JHI9 1-570): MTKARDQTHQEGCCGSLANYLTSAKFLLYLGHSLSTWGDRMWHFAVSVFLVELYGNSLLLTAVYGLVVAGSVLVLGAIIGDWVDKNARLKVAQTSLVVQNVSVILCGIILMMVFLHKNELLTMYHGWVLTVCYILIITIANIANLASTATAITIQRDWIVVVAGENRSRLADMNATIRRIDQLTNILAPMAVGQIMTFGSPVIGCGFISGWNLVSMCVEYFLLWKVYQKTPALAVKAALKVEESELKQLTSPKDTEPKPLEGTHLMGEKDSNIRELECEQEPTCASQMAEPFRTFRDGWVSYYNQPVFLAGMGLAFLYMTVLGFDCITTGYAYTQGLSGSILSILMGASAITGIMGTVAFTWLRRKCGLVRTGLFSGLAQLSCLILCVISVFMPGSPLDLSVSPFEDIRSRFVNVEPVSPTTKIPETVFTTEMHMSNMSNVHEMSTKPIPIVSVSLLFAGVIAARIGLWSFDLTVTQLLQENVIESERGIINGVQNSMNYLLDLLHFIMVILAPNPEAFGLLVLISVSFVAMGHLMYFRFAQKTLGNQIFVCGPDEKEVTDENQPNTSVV
Outline: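 Inhibition of fluorescent TMR-hepcidin uptake via ferroportin was imaged in fixed J774 cells after a 2 h, 37 °C co-incubation with compound dilutions; cells were pre-cultured overnight with 200 μM Fe(III)NTA. Internalized TMR signal per cell (Sum(Mean)) was fitted as log(inhibitor) vs. response for IC50, in triplicate.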

human Fpn = target: T2, human Fpn (Homo sapiens, UniProt Q9NP59); experiment: Biophysical Ferroportin-Hepcidin Binding Assay (fluorescence polarization); conditions: average of multiple measurements; 1 μM human Fpn, 20 nM TMR-hepcidin; read-out: FP IC50
T2 construct: FLAG (C); made in house; host or cells: Pichia pastoris
T2 sequence (Q9NP59 1-571): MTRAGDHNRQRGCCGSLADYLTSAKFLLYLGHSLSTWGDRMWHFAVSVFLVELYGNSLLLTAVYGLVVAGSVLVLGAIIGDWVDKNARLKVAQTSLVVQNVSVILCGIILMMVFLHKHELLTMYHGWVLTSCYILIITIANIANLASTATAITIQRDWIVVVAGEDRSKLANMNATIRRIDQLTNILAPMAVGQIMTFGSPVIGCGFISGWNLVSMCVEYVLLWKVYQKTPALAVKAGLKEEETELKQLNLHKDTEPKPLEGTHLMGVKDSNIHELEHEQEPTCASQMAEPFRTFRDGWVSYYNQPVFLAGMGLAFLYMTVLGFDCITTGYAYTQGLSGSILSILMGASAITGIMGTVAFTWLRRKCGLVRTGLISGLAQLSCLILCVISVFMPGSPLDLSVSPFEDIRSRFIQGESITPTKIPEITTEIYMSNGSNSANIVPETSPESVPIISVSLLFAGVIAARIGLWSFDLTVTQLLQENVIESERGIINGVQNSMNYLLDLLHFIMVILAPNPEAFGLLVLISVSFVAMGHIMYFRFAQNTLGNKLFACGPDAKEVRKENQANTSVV
Procedure: This biophysical assay was developed to confirm inhibition of hepcidin binding to ferroportin (Fpn) more directly. Incubation of TMR-hepcidin with purified human Fpn isolated from Pichia pastoris yeast cells expressing human Fpn with a C-terminal FLAG affinity tag (Bonaccorsi di Patti, 2014) leads to increased fluorescence polarization (FP) of the TMR-hepcidin ligand. Small molecular weight Fpn inhibitors were tested for inhibition of binding of TMR-hepcidin to Fpn, as detected by dose-dependent decrease of the TMR FP signal, as described in detail below.
8 μl of serial dilutions of test compounds were added in duplicates to reach final Fpn and TMR-hepcidin concentrations of 1 μM and 20 nM, respectively. Plates were incubated for 90 minutes at room temperature and parallel (S) and perpendicular (P) fluorescence was measured in a Synergy H1 fluorescence reader (BioTek). FP values were calculated in mP according to the following formula.

human Fpn-GFP fusion = target: T3, human Fpn-GFP fusion (Homo sapiens, UniProt Q9NP59); experiment: Inhibition of ferroportin mediated iron export activity in an iron response assay (BLAzer); type: cell-based; conditions: average of multiple measurements; HEK-293 cell line #354; read-out: BLAzer EC50
T3 construct: expressed in transfected cells; host or cells: HEK-293 cell line #354 (derivative of HEK-293 Tet-ON Advanced, Clontech)
T3 sequence (Q9NP59 1-571): T2 sequence (Q9NP59 1-571)
Text: Intracellular iron levels are indirectly measured in this assay by monitoring the activity of a beta-lactamase (BLA) reporter gene fused to the human ferritin promoter and the associated iron regulatory element (IRE) contained within the 5′ untranslated region of the ferritin mRNA. Expression of ferroportin (Fpn) in such a cell line leads to iron efflux and lower iron levels as reflected by lower activity of the reporter gene. On the other hand, inhibition of Fpn-mediated iron efflux results in elevated cellular iron levels which is detected as increased reporter gene activity. Small molecular weight Fpn inhibitor compounds were tested for dose-dependent effects in this in vitro iron response assay as described below.
The HEK-293 cell line #354 was generated by stable integration of (i) a human Fpn-GFP fusion construct inserted in a derivative of the doxycycline-inducible pTRE-Tight-BI plasmid (Clontech, Cat. 631068) and (ii) a human ferritin promoter-BLA reporter gene into a derivative of the HEK-293 Tet-ON Advanced cell line (Clontech). […] After overnight incubation, 10 μl/well of dilution series of the test compounds were added in quadruplicates and plates were further incubated overnight at 37° C. with 5% CQ. Cells were washed 3 times with HBSS leaving 25 μl per well. BLA activity was detected by adding 5 μl/well of the GeneBlazer reagent CCF4-AM (Invitrogen, Cat. K1085) to the cells. After incubation of the plates in the dark at 18° C. for 60 min., blue and green fluorescence signals were measured in a Safre2 fluorescence plate reader (Tecan) with excitation at 410 nm and emissions at 458 nm (blue) and 522 nm (green). The ratio of blue/green fluorescence as a measure for BLA activity was calculated and EC50 values were determined with the calculated blue/green fluorescence ratios as described for the hepcidin internalization assay.

Structure (SMILES)	IC50 (ferroportin (Fpn)) [nM]	IC50 (human Fpn) [nM]	EC50 (human Fpn-GFP fusion) [nM]
Cc1cc(C)c(CNC(=O)c2csc(CCNCc3nc4ccccc4[nH]3)n2)cn1 [Example 105]	77	420	2630
O=C(NCc1ncc(C(F)(F)F)cc1Cl)c1csc(CCNCc2nc3ccccc3[nH]2)n1 [Example 101]	280	315	2920
O=C(NCc1ccccc1)c1csc(CCNCCc2nc3ccccc3[nH]2)n1 [Example 29]	510	136	2530
Cc1ccc(CNC(=O)c2csc(CCNCc3nc4ccccc4[nH]3)n2)nc1 [Example 97]	270	2130	1810
O=C(NCc1ccncc1F)c1csc(CCNCc2nc3ccccc3[nH]2)n1 [Example 89]	89	922	5050
O=C(NCc1ncc(F)cc1Cl)c1csc(CCNCc2nc3ccccc3[nH]2)n1 [Example 102]	58	258	1850
Cc1ccc(F)c(CNC(=O)c2csc(CCNCc3nc4ccccc4[nH]3)n2)n1 [Example 79]	37	820	840
O=C(NC1CCCc2cccnc21)c1csc(CCNCc2nc3ccccc3[nH]2)n1 (stereo not drawn) [Example 38]	30	233	2980
O=C(NCc1ncccc1F)c1cncc(C2CN(CCc3nc4c(F)cccc4[nH]3)C2)c1 [compound 248]	363	306	6340
Cn1ccnc1CNC(=O)c1csc(CCNCc2nc3ccccc3[nH]2)n1 [Example 64]	130	1240	4530
COc1cccnc1CNC(=O)c1csc(CCNCc2nc3ccccc3[nH]2)n1 [Example 59]	50	270	1380
CN1CCN(c2ccccc2CNC(=O)c2csc(CCNCc3nc4ccccc4[nH]3)n2)CC1 [Example 68]	2500	4060	10400
O=C(NCc1ncccc1Cl)c1ncn(CCNCc2nc3ccccc3[nH]2)n1 [Example 170]	482	280	3960
Cn1ccnc1CNCCc1nc(C(=O)NCc2ccccc2)cs1 [Example 2]	6300	10600	1640
O=C(c1csc(CCNCc2nc3ccccc3[nH]2)n1)N1CCc2ncccc2C1 [Example 107]	1320	5740	21000
N#Cc1ccccc1CNC(=O)c1csc(CCNCc2nc3ccccc3[nH]2)n1 [Example 71]	240	508	1790
O=C(NCc1ncccn1)c1csc(CCNCc2nc3ccccc3[nH]2)n1 [Example 61]	560	1690	37500
O=C(CCNCCc1nc2ccccc2[nH]1)NCC(=O)NCc1ncccc1F [compound 190]	740	660	27300
O=C(NCc1ccncn1)c1csc(CCNCc2nc3ccccc3[nH]2)n1 [Example 44]	1330	5340	18300

Structure (SMILES)	IC50 (ferroportin (Fpn)) [nM]	IC50 (human Fpn) [nM]	EC50 (human Fpn-GFP fusion) [nM]
Cc1ccc(CNC(=O)c2csc(CCNCc3nc4ccccc4[nH]3)n2)nn1 [Example 93]	530	1030	20600
O=C(NCc1ncco1)c1csc(CCNCc2nc3ccccc3[nH]2)n1 [Example 85]	29	1870	18700
O=C(NCc1ccccc1)c1csc(CCNCc2nc3cc(Cl)ccc3[nH]2)n1 [Example 52]	340	1360	2080
Cn1ccc(CNC(=O)c2csc(CCNCc3nc4ccccc4[nH]3)n2)n1 [Example 86]	480	4960	22300
N#Cc1ccc(CNC(=O)c2csc(CCNCc3nc4ccccc4[nH]3)n2)cn1 [Example 56]	410	566	10400
O=C(NCc1ncccc1C(F)(F)F)c1csc(CCNCc2nc3ccccc3[nH]2)n1 [Example 37]	810	1900	7920
O=C(NCc1ccccc1)c1csc(CCNCc2cc3ccccc3[nH]2)n1 [Example 24]	2800		12800
O=C(NCc1cnccn1)c1csc(CCNCc2nc3ccccc3[nH]2)n1 [Example 46]	590	4340	38700
Cc1ccc2[nH]c(CNCCc3nc(C(=O)NCc4ccccc4)cs3)nc2c1 [Example 32]	2600	1210	1870
N#Cc1ccc2[nH]c(CCNCCc3nc(C(=O)NCc4ncccc4F)co3)nc2c1 [Example 265]	70		2000
Cn1cncc1CNC(=O)c1csc(CCNCc2nc3ccccc3[nH]2)n1 [Example 84]	400	2410	13200
O=C(NCc1cccnn1)c1csc(CCNCc2nc3ccccc3[nH]2)n1 [Example 87]	190	2250	16600
Cc1cc(CNC(=O)c2csc(CCNCc3nc4ccccc4[nH]3)n2)ccn1 [Example 99]	2990	4330	22800
Cc1c(CNC(=O)c2csc(CCNCc3nc4ccccc4[nH]3)n2)cnn1C [Example 100]	460	1420	6560
O=C(NCc1ncccc1F)c1cncc(CCNCCc2nc3ccccc3[nH]2)c1 [compound 229]		43	4060
O=C(NCC1CCCCC1)c1csc(CCNCc2nc3ccccc3[nH]2)n1 [Example 13]	1700	530	27000
O=C(CNC(=O)C1CN(CCc2nc3ccccc3[nH]2)C1)NCc1ncccc1F [compound 201]	1930	790	39400
O=C(NCc1ncccc1F)c1cncc(CCNCCc2nc3c(F)cccc3[nH]2)c1 [compound 246]	276	263	12900
